{"source": "paper PMC6704710", "about": "“Preclinical evaluation of 3D185, a novel potent inhibitor of FGFR1/2/3 and CSF-1R, in FGFR-dependent and macrophage-dominant cancer models” (Journal of Experimental & Clinical Cancer Research : CR, 2019)", "experiment_in_all_cases": "Eurofins kinase panel", "format_in_all_cases": "biochemical", "conditions_in_all_cases": "read-out: Inhibition rate (%)", "key": {"[1]": {"target": "T1, CaMKIV(h) (Homo sapiens, UniProt Q16566)", "T1 construct": "purchased Eurofins (KinaseProfiler)", "T1 sequence (Q16566 1-473)": "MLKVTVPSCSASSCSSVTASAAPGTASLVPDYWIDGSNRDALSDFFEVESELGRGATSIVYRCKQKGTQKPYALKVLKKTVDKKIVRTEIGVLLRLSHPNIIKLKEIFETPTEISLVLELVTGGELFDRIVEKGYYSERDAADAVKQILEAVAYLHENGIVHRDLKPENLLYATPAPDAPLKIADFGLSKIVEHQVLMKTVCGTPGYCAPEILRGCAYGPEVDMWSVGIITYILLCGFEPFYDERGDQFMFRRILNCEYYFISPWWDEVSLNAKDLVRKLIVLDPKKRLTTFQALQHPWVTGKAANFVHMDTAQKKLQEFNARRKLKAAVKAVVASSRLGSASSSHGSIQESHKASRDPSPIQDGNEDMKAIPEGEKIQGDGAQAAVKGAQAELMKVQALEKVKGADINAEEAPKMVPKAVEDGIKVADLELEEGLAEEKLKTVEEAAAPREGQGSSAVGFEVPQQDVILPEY"}, "[2]": {"target": "T2, Cdc7/cyclinB1(h) (Homo sapiens, UniProt O00311)", "T2 construct": "purchased Eurofins (KinaseProfiler)"}, "[3]": {"target": "T3, Fms(Y969C)(h) (Homo sapiens, UniProt P07333, Y969C)", "T3 construct": "purchased Eurofins (KinaseProfiler)", "T3 sequence (P07333 20-972 Y969C)": "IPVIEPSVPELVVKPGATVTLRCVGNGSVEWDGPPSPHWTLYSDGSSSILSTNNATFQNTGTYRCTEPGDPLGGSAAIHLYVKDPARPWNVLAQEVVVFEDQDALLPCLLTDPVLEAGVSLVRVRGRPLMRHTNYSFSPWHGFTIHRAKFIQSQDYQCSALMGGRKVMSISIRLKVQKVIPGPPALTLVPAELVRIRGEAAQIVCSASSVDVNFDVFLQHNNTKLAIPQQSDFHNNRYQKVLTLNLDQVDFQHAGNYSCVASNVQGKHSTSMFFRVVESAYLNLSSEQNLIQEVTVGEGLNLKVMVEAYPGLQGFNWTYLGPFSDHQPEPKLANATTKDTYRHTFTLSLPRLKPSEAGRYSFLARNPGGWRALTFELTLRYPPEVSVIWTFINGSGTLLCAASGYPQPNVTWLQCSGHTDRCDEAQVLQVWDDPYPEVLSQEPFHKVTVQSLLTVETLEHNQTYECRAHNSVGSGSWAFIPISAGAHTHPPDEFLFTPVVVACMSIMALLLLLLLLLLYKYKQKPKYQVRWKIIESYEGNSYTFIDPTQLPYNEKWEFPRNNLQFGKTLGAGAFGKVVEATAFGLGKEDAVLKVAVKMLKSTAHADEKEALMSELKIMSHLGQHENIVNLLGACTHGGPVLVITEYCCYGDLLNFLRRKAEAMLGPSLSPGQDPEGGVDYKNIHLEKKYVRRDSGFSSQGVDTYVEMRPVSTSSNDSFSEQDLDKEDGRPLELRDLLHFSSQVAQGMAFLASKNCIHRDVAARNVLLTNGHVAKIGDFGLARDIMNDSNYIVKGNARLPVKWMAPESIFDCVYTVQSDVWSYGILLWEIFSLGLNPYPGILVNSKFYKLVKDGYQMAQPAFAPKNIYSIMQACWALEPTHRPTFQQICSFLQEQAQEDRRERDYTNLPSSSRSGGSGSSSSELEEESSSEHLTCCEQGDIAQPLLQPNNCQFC"}, "[4]": {"target": "T4, GRK5(h) (Homo sapiens, UniProt P34947)", "T4 construct": "purchased Eurofins (KinaseProfiler)", "T4 sequence (P34947 whole entry)": "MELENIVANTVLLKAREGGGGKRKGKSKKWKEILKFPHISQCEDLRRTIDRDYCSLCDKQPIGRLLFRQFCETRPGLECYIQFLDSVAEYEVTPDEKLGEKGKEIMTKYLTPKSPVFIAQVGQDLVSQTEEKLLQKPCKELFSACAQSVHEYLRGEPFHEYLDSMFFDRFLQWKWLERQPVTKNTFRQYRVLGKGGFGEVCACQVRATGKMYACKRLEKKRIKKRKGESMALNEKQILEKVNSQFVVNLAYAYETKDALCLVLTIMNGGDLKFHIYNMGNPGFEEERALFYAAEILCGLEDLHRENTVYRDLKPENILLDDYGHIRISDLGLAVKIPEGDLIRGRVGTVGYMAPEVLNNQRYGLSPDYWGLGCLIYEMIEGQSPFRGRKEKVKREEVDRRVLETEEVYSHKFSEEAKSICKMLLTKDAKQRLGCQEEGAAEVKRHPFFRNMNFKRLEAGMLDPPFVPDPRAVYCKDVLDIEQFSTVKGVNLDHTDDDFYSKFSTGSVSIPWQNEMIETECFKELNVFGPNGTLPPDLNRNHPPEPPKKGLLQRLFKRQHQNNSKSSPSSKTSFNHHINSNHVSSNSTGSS"}, "[5]": {"target": "T5, IRAK1(h) (Homo sapiens, UniProt P51617)", "T5 construct": "purchased Eurofins (KinaseProfiler)", "T5 sequence (P51617 whole entry)": "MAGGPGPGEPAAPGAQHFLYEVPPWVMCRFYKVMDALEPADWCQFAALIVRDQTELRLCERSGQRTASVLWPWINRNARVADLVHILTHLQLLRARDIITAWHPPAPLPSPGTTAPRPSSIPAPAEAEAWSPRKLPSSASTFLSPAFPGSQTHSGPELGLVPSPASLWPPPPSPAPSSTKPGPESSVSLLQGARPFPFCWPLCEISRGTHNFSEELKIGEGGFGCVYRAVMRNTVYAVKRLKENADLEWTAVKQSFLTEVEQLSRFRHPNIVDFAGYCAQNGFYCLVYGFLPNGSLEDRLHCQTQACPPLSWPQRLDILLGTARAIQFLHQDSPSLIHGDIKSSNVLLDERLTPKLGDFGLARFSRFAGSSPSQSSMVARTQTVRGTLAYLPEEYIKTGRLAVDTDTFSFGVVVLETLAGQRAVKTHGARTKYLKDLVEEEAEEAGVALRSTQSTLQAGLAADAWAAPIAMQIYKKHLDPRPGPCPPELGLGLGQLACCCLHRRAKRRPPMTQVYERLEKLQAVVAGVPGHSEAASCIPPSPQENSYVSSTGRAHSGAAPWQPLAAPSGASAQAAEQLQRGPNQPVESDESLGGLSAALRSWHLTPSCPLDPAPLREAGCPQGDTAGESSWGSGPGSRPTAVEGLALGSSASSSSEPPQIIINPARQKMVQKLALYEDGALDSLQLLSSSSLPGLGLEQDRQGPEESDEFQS"}, "[6]": {"target": "T6, SGK2(h) (Homo sapiens, UniProt Q9HBY8)", "T6 construct": "purchased Eurofins (KinaseProfiler)", "T6 sequence (Q9HBY8 1-367)": "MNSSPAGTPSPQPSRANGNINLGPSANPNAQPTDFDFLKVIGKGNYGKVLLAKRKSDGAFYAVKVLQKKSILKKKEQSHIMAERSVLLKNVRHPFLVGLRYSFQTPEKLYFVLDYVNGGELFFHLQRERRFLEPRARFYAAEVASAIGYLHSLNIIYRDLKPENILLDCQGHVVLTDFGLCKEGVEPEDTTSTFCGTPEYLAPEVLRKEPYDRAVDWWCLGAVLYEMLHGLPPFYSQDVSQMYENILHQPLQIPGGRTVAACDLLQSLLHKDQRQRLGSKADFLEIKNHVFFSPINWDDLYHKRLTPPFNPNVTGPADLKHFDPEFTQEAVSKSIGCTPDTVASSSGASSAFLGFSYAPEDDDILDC"}, "[7]": {"target": "T7, SIK(h) (Homo sapiens, UniProt P57059)", "T7 construct": "purchased Eurofins (KinaseProfiler)"}, "[8]": {"target": "T8, SIK3(h) (Homo sapiens, UniProt Q9Y2K2)", "T8 construct": "purchased Eurofins (KinaseProfiler)", "T8 sequence (Q9Y2K2 whole entry)": "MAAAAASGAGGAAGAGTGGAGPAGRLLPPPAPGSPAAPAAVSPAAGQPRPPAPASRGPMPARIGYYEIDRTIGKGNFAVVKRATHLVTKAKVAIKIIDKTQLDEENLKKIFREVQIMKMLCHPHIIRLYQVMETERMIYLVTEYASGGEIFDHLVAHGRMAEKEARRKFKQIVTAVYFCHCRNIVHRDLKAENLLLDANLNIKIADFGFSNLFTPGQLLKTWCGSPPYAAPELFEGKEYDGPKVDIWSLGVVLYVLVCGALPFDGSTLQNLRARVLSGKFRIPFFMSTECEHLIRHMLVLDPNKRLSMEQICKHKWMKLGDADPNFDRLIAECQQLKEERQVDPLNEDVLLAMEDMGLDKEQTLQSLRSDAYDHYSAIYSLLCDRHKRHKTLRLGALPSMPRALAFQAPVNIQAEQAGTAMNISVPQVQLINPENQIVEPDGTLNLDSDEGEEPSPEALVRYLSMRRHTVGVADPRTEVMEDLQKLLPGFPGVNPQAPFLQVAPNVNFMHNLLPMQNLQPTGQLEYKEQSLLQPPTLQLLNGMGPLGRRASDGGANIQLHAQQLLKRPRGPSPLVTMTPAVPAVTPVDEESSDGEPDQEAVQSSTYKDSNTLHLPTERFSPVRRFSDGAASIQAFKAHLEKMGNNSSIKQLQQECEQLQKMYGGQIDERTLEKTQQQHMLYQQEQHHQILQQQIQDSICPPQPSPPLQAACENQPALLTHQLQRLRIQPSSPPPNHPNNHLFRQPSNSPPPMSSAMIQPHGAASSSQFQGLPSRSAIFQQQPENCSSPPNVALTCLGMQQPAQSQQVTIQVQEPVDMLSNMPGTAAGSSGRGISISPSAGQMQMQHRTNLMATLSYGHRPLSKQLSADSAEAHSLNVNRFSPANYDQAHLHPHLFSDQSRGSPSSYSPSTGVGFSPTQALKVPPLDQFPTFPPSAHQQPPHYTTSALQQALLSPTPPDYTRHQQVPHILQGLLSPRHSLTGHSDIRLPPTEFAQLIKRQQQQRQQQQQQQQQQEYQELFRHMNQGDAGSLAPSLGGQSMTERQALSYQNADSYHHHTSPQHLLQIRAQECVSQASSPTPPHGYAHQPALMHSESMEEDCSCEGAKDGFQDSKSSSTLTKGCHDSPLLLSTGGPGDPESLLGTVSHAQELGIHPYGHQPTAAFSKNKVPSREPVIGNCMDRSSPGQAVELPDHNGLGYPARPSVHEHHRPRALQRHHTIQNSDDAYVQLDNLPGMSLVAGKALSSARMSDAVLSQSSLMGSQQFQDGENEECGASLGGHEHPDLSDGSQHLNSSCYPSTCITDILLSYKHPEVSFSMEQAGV"}, "[9]": {"target": "T9, Tec(h) activated (Homo sapiens, UniProt P42680)", "T9 construct": "purchased Eurofins (KinaseProfiler)", "T9 sequence (P42680 1-631)": "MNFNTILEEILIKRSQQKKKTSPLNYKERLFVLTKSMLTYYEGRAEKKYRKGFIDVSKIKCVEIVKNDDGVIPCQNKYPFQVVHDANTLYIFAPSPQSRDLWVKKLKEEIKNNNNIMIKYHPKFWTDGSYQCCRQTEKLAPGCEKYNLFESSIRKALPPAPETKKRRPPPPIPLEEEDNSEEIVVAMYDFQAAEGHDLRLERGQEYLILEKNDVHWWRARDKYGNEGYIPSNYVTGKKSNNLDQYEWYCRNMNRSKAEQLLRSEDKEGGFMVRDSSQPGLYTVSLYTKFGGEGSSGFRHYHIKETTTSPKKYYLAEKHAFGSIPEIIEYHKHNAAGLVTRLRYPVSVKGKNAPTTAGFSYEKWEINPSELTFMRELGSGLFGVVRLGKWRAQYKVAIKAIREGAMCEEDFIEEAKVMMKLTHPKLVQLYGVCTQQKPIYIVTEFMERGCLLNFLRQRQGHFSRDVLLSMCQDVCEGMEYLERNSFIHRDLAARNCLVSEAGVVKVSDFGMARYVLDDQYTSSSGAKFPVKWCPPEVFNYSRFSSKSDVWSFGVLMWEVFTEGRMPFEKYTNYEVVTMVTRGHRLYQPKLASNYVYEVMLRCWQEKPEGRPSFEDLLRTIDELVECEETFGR"}, "[10]": {"target": "T10, mTOR/FKBP12(h) (Homo sapiens, UniProt P42345)", "T10 construct": "purchased Eurofins (KinaseProfiler)", "T10 sequence (P42345 1362-2549 limits assumed)": "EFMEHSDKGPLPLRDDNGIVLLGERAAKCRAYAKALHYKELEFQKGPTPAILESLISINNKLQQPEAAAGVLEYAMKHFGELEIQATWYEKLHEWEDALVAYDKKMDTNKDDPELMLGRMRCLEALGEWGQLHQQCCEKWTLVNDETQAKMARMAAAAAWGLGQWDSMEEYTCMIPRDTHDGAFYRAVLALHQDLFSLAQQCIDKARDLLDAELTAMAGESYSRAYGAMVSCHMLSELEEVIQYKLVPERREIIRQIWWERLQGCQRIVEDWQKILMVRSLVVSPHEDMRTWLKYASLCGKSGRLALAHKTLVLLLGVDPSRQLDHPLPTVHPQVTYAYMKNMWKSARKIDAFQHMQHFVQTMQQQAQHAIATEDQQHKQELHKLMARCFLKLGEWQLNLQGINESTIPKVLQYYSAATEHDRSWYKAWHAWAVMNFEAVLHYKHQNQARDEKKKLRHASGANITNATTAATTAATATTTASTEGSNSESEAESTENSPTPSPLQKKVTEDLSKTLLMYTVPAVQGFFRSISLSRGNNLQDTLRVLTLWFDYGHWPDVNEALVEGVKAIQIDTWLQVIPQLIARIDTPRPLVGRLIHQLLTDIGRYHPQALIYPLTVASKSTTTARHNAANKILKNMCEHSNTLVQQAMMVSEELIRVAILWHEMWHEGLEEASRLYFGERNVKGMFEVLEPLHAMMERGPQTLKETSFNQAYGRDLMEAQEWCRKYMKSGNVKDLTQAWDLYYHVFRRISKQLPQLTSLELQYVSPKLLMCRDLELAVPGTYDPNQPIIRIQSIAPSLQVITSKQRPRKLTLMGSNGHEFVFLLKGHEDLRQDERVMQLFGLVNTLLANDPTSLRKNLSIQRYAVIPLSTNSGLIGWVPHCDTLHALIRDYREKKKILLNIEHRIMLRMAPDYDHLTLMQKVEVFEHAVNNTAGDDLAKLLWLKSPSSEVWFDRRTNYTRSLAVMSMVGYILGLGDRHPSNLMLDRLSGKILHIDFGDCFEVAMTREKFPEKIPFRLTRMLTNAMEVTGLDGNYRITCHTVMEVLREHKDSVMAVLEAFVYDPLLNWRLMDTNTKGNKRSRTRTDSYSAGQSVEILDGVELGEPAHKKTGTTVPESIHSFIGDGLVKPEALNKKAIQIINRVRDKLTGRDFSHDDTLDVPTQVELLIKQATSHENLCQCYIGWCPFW"}}}
{"smiles": "COc1cc(OC)c(Cl)c(-c2ccc3c(NC(=O)c4ccc(N5CCNC(C)(C)C5)cc4)n[nH]c3n2)c1Cl", "note": "[3D185]", "values": [{"measurement": "inhibition at 0.01 µM", "setting": "[1]; 10 nM", "value": -6, "unit": "%"}, {"measurement": "inhibition at 0.1 µM", "setting": "[1]; 100 nM", "value": -21, "unit": "%"}, {"measurement": "inhibition at 1 µM", "setting": "[1]; 1000 nM", "value": -22, "unit": "%"}, {"measurement": "inhibition at 0.01 µM", "setting": "[2]; 10 nM", "value": 5, "unit": "%"}, {"measurement": "inhibition at 0.1 µM", "setting": "[2]; 100 nM", "value": -5, "unit": "%"}, {"measurement": "inhibition at 1 µM", "setting": "[2]; 1000 nM", "value": 8, "unit": "%"}, {"measurement": "inhibition at 0.01 µM", "setting": "[3]; 10 nM", "value": 34, "unit": "%"}, {"measurement": "inhibition at 0.1 µM", "setting": "[3]; 100 nM", "value": 75, "unit": "%"}, {"measurement": "inhibition at 1 µM", "setting": "[3]; 1000 nM", "value": 95, "unit": "%"}, {"measurement": "inhibition at 0.01 µM", "setting": "[4]; 10 nM", "value": -1, "unit": "%"}, {"measurement": "inhibition at 0.1 µM", "setting": "[4]; 100 nM", "value": -9, "unit": "%"}, {"measurement": "inhibition at 1 µM", "setting": "[4]; 1000 nM", "value": 3, "unit": "%"}, {"measurement": "inhibition at 0.01 µM", "setting": "[5]; 10 nM", "value": 4, "unit": "%"}, {"measurement": "inhibition at 0.1 µM", "setting": "[5]; 100 nM", "value": 0, "unit": "%"}, {"measurement": "inhibition at 1 µM", "setting": "[5]; 1000 nM", "value": 19, "unit": "%"}, {"measurement": "inhibition at 0.01 µM", "setting": "[6]; 10 nM", "value": 4, "unit": "%"}, {"measurement": "inhibition at 0.1 µM", "setting": "[6]; 100 nM", "value": 1, "unit": "%"}, {"measurement": "inhibition at 1 µM", "setting": "[6]; 1000 nM", "value": 26, "unit": "%"}, {"measurement": "inhibition at 0.01 µM", "setting": "[7]; 10 nM", "value": 4, "unit": "%"}, {"measurement": "inhibition at 0.1 µM", "setting": "[7]; 100 nM", "value": -17, "unit": "%"}, {"measurement": "inhibition at 1 µM", "setting": "[7]; 1000 nM", "value": -5, "unit": "%"}, {"measurement": "inhibition at 0.01 µM", "setting": "[8]; 10 nM", "value": -4, "unit": "%"}, {"measurement": "inhibition at 0.1 µM", "setting": "[8]; 100 nM", "value": -1, "unit": "%"}, {"measurement": "inhibition at 1 µM", "setting": "[8]; 1000 nM", "value": -2, "unit": "%"}, {"measurement": "inhibition at 0.01 µM", "setting": "[9]; 10 nM", "value": 3, "unit": "%"}, {"measurement": "inhibition at 0.1 µM", "setting": "[9]; 100 nM", "value": 9, "unit": "%"}, {"measurement": "inhibition at 1 µM", "setting": "[9]; 1000 nM", "value": 23, "unit": "%"}, {"measurement": "inhibition at 0.01 µM", "setting": "[10]; 10 nM", "value": 1, "unit": "%"}, {"measurement": "inhibition at 0.1 µM", "setting": "[10]; 100 nM", "value": 0, "unit": "%"}, {"measurement": "inhibition at 1 µM", "setting": "[10]; 1000 nM", "value": 2, "unit": "%"}]}
